# Data from PubChem BioAssay AID1259407 (Chemical Carcinogenesis Research Information System (CCRIS), 2018).
# Activity calls are given as the source filed them. The rule behind the calls is not given here.
# Tested on: CCRIS mutagenicity, Ames/micronucleus/aberration tests
# Test: CCRIS mutagenicity studies
# [1] = Test System: AMES SALMONELLA TYPHIMURIUM, Strain/Indicator: TA97, Metabolic Activation: NONE, Method: STANDARD PLATE
# [2] = Test System: AMES SALMONELLA TYPHIMURIUM, Strain/Indicator: TA98, Metabolic Activation: NONE, Method: STANDARD PLATE
# [3] = Test System: AMES SALMONELLA TYPHIMURIUM, Strain/Indicator: TA100, Metabolic Activation: NONE, Method: STANDARD PLATE
# [4] = Test System: AMES SALMONELLA TYPHIMURIUM, Strain/Indicator: TA102, Metabolic Activation: NONE, Method: PREINCUBATION
smiles,measurement,setting,value
O=C(O)CC(O)(CC(=O)O)C(=O)O,mutagenic call,"Test System: AMES SALMONELLA TYPHIMURIUM, Strain/Indicator: TA97, Metabolic Activation: NONE, Method: PREINCUBATION",inactive; negative
same,mutagenic call,[1],inactive; negative
same,mutagenic call,"Test System: AMES SALMONELLA TYPHIMURIUM, Strain/Indicator: TA97, Metabolic Activation: RAT, LIVER, S-9, AROCLOR 1254, Method: PREINCUBATION",inactive; negative
same,mutagenic call,"Test System: AMES SALMONELLA TYPHIMURIUM, Strain/Indicator: TA97, Metabolic Activation: RAT, LIVER, S-9, PHENOBARBITAL, Method: STANDARD PLATE",inactive; negative
same,mutagenic call,"Test System: AMES SALMONELLA TYPHIMURIUM, Strain/Indicator: TA97, Metabolic Activation: S-9, Method: PREINCUBATION",inactive; negative
same,mutagenic call,[2],inactive; negative
same,mutagenic call,"Test System: AMES SALMONELLA TYPHIMURIUM, Strain/Indicator: TA98, Metabolic Activation: RAT, LIVER, S-9, PHENOBARBITAL, Method: STANDARD PLATE",inactive; negative
same,mutagenic call,[3],inactive; negative
same,mutagenic call,"Test System: AMES SALMONELLA TYPHIMURIUM, Strain/Indicator: TA100, Metabolic Activation: RAT, LIVER, S-9, PHENOBARBITAL, Method: STANDARD PLATE",inactive; negative
same,mutagenic call,[4],inactive; negative
same,mutagenic call,"Test System: AMES SALMONELLA TYPHIMURIUM, Strain/Indicator: TA102, Metabolic Activation: RAT, LIVER, S-9, AROCLOR 1254, Method: PREINCUBATION",inactive; negative
same,mutagenic call,"Test System: AMES SALMONELLA TYPHIMURIUM, Strain/Indicator: TA102, Metabolic Activation: S-9, Method: PREINCUBATION",inactive; negative
same,mutagenic call,"Test System: AMES SALMONELLA TYPHIMURIUM, Strain/Indicator: TA104, Metabolic Activation: NONE, Method: STANDARD PLATE",inactive; negative
same,mutagenic call,"Test System: AMES SALMONELLA TYPHIMURIUM, Strain/Indicator: TA104, Metabolic Activation: RAT, LIVER, S-9, PHENOBARBITAL, Method: STANDARD PLATE",inactive; negative
CCC[N+](=O)[O-],mutagenic call,"Test System: AMES SALMONELLA TYPHIMURIUM, Strain/Indicator: TA98, Metabolic Activation: RAT LIVER S-9, PHENOBARBITAL AND BETA-NAPHTHOFLAVONE, Method: PREINCUBATION",inactive; negative
same,mutagenic call,"Test System: AMES SALMONELLA TYPHIMURIUM, Strain/Indicator: TA98, Metabolic Activation: RAT, LIVER, S-9, AROCLOR, Method: PREINCUBATION",inactive; negative
same,mutagenic call,"Test System: AMES SALMONELLA TYPHIMURIUM, Strain/Indicator: TA98, Metabolic Activation: RAT, LIVER, S-9, CLOPHEN A-50, Method: PREINCUBATION",inactive; negative
same,mutagenic call,"Test System: AMES SALMONELLA TYPHIMURIUM, Strain/Indicator: TA98, Metabolic Activation: RAT, LIVER, S-9, KANECHLOR 500, Method: PREINCUBATION",inactive; negative
same,mutagenic call,"Test System: AMES SALMONELLA TYPHIMURIUM, Strain/Indicator: TA100, Metabolic Activation: RAT LIVER S-9, PHENOBARBITAL AND BETA-NAPHTHOFLAVONE, Method: PREINCUBATION",inactive; negative
same,mutagenic call,"Test System: AMES SALMONELLA TYPHIMURIUM, Strain/Indicator: TA100, Metabolic Activation: RAT, LIVER, S-9, AROCLOR, Method: PREINCUBATION",inactive; negative
same,mutagenic call,"Test System: AMES SALMONELLA TYPHIMURIUM, Strain/Indicator: TA100, Metabolic Activation: RAT, LIVER, S-9, CLOPHEN A-50, Method: PREINCUBATION",inactive; negative
same,mutagenic call,"Test System: AMES SALMONELLA TYPHIMURIUM, Strain/Indicator: TA100, Metabolic Activation: RAT, LIVER, S-9, KANECHLOR 500, Method: PREINCUBATION",inactive; negative
same,mutagenic call,[4],inactive; negative
same,mutagenic call,"Test System: AMES SALMONELLA TYPHIMURIUM, Strain/Indicator: TA102, Metabolic Activation: RAT LIVER S-9, PHENOBARBITAL AND BETA-NAPHTHOFLAVONE, Method: PREINCUBATION",inactive; negative
same,mutagenic call,"Test System: AMES SALMONELLA TYPHIMURIUM, Strain/Indicator: TA102, Metabolic Activation: RAT, LIVER, S-9, AROCLOR, Method: PREINCUBATION",inactive; negative
same,mutagenic call,"Test System: AMES SALMONELLA TYPHIMURIUM, Strain/Indicator: TA104, Metabolic Activation: NONE, Method: PREINCUBATION",inactive; negative
same,mutagenic call,"Test System: AMES SALMONELLA TYPHIMURIUM, Strain/Indicator: TA104, Metabolic Activation: RAT LIVER S-9, PHENOBARBITAL AND BETA-NAPHTHOFLAVONE, Method: PREINCUBATION",inactive; negative
same,mutagenic call,"Test System: AMES SALMONELLA TYPHIMURIUM, Strain/Indicator: TA1535, Metabolic Activation: NONE, Method: PREINCUBATION",inactive; negative
same,mutagenic call,"Test System: AMES SALMONELLA TYPHIMURIUM, Strain/Indicator: TA1535, Metabolic Activation: RAT LIVER S-9, PHENOBARBITAL AND BETA-NAPHTHOFLAVONE, Method: PREINCUBATION",inactive; negative
same,mutagenic call,"Test System: AMES SALMONELLA TYPHIMURIUM, Strain/Indicator: TA1537, Metabolic Activation: NONE, Method: PREINCUBATION",inactive; negative
same,mutagenic call,"Test System: AMES SALMONELLA TYPHIMURIUM, Strain/Indicator: TA1537, Metabolic Activation: RAT LIVER S-9, PHENOBARBITAL AND BETA-NAPHTHOFLAVONE, Method: PREINCUBATION",inactive; negative
same,mutagenic call,"Test System: CHINESE HAMSTER V-79, Strain/Indicator: V-79/6-THIOGUANINE, Metabolic Activation: NONE, Method: STANDARD PLATE",active; positive
same,mutagenic call,"Test System: E. COLI, Strain/Indicator: WP2 UVRA (PKM101), Metabolic Activation: NONE, Method: PREINCUBATION",inactive; negative
same,mutagenic call,"Test System: E.COLI, Strain/Indicator: WP2UVRA/PKM101, Metabolic Activation: NONE, Method: PREINCUBATION",inactive; negative
same,mutagenic call,"Test System: E.COLI, Strain/Indicator: WP2UVRA/PKM101, Metabolic Activation: RAT LIVER S-9, PHENOBARBITAL AND BETA-NAPHTHOFLAVONE, Method: PREINCUBATION",inactive; negative
same,mutagenic call,"Test System: E.COLI, Strain/Indicator: WP2UVRA, Metabolic Activation: NONE, Method: PREINCUBATION",inactive; negative
same,mutagenic call,"Test System: E.COLI, Strain/Indicator: WP2UVRA, Metabolic Activation: RAT LIVER S-9, PHENOBARBITAL AND BETA-NAPHTHOFLAVONE, Method: PREINCUBATION",inactive; negative
same,mutagenic call,"Test System: UDS RAT HEPATOCYTES, Strain/Indicator: THY INCORP, Metabolic Activation: NONE",inactive; negative
same,mutagenic call,"Test System: UDS RODENT HEPATOCYTES, Strain/Indicator: THY INCORP (NON-S-PHASE), Metabolic Activation: NONE, Method: PREINCUBATION",inactive; negative
O=C([O-])c1cccnc1Nc1cccc(C(F)(F)F)c1.O=C([O-])c1cccnc1Nc1cccc(C(F)(F)F)c1.OCc1cccnc1.OCc1cccnc1.[Cu+2],mutagenic call,"Test System: AMES SALMONELLA TYPHIMURIUM, Strain/Indicator: TA97, Metabolic Activation: MOUSE, LIVER, S-9, Method: STANDARD PLATE",inactive; negative
same,mutagenic call,[1],inactive; negative
same,mutagenic call,"Test System: AMES SALMONELLA TYPHIMURIUM, Strain/Indicator: TA97, Metabolic Activation: RAT LIVER S-9, DELOR 103, Method: STANDARD PLATE",inactive; negative
same,mutagenic call,"Test System: AMES SALMONELLA TYPHIMURIUM, Strain/Indicator: TA98, Metabolic Activation: MOUSE, LIVER, S-9, Method: STANDARD PLATE",inactive; negative
same,mutagenic call,[2],inactive; negative
same,mutagenic call,"Test System: AMES SALMONELLA TYPHIMURIUM, Strain/Indicator: TA98, Metabolic Activation: RAT LIVER S-9, DELOR 103, Method: STANDARD PLATE",inactive; negative
same,mutagenic call,"Test System: AMES SALMONELLA TYPHIMURIUM, Strain/Indicator: TA100, Metabolic Activation: MOUSE, LIVER, S-9, Method: STANDARD PLATE",inactive; negative
same,mutagenic call,[3],inactive; negative
same,mutagenic call,"Test System: AMES SALMONELLA TYPHIMURIUM, Strain/Indicator: TA100, Metabolic Activation: RAT LIVER S-9, DELOR 103, Method: STANDARD PLATE",inactive; negative
same,mutagenic call,"Test System: AMES SALMONELLA TYPHIMURIUM, Strain/Indicator: TA102, Metabolic Activation: MOUSE, LIVER, S-9, Method: STANDARD PLATE",inactive; negative
same,mutagenic call,"Test System: AMES SALMONELLA TYPHIMURIUM, Strain/Indicator: TA102, Metabolic Activation: NONE, Method: STANDARD PLATE",inactive; negative
same,mutagenic call,"Test System: AMES SALMONELLA TYPHIMURIUM, Strain/Indicator: TA102, Metabolic Activation: RAT LIVER S-9, DELOR 103, Method: STANDARD PLATE",inactive; negative
